Assay results reported in paper PMC3285437 (Cell, 2012).
pKd: −log10 of the molar value.

Experiments:
Kes1 (Kes1/Osh4) [1] = target: Kes1 (Kes1/Osh4) (Saccharomyces cerevisiae, UniProt P35844, K242E/K243E/R236E); assay: [3H]-cholesterol saturation binding, sterol:detergent micelle assay
Kes1 (Kes1/Osh4) [2] = target: Kes1 (Kes1/Osh4) (Saccharomyces cerevisiae, UniProt P35844); assay: as above

In the case of `CC(C)CCC[C@@H](C)[C@H]1CC[C@H]2[C@@H]3CC=C4C[C@@H](O)CC[C@]4(C)[C@H]3CC[C@]12C` [[^3H]-Cholesterol], the pKd (Kes1 (Kes1/Osh4) [1]) was 6.10 to 6.30 and the pKd (Kes1 (Kes1/Osh4) [2]) was 6.10 to 6.30.
